The text below walks through data of PubChem BioAssay AID212 (DTP/NCI, 2004).

This test has as its system BDF1 mice, colon carcinoma 38 sc, T/C %. Kind of test: NCI In Vivo Anticancer Drug Screen. Data for tumor model Colon Carcinoma 38 (subcutaneous) in B6D2F1 (BDF1) mice. The settings on record: endpoint: median tumor weight (est.), higher = larger tumour. A digest of the protocol: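 Mice with transplanted tumors are treated with compound or vehicle. Survival or tumor size is then measured in both groups. The ratio of treated to control gives the reported figure.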

Where [1] appears, read: dose: 25.0 mg/kg/injection, schedule: Q07DX002 (ip), vehicle: saline.
The mark [2] stands for this setting: dose: 25.0 mg/kg/injection, schedule: Q07DX002 (ip), vehicle: suspension in saline.
Where [3] appears, read: dose: 50.0 mg/kg/injection, schedule: Q07DX002 (ip), vehicle: saline.
Setting [4] is: dose: 50.0 mg/kg/injection, schedule: Q07DX002 (ip), vehicle: suspension in saline.
The mark [5] stands for this setting: dose: 25.0 mg/kg/injection, schedule: Q07DX002 (ip), vehicle: saline with Tween-80.
The mark [6] stands for this setting: dose: 100.0 mg/kg/injection, schedule: Q07DX002 (ip), vehicle: saline.
Where [7] appears, read: dose: 100.0 mg/kg/injection, schedule: Q07DX003 (ip), vehicle: saline.
[8] abbreviates: dose: 50.0 mg/kg/injection, schedule: Q07DX002 (ip), vehicle: saline with Tween-80.
[9] abbreviates: dose: 200.0 mg/kg/injection, schedule: Q07DX002 (ip), vehicle: saline with Tween-80.
The mark [10] stands for this setting: dose: 200.0 mg/kg/injection, schedule: Q07DX002 (ip), vehicle: saline.
Where [11] appears, read: dose: 400.0 mg/kg/injection, schedule: Q07DX002 (ip), vehicle: saline with Tween-80.
The mark [12] stands for this setting: dose: 400.0 mg/kg/injection, schedule: Q07DX002 (ip), vehicle: saline.
Where [13] appears, read: dose: 400.0 mg/kg/injection, schedule: Q07DX002 (ip), vehicle: suspension in saline.
Setting [14] is: dose: 800.0 mg/kg/injection, schedule: Q07DX002 (ip), vehicle: saline with Tween-80.
Where [15] appears, read: dose: 800.0 mg/kg/injection, schedule: Q07DX002 (ip), vehicle: saline.
The mark [16] stands for this setting: dose: 800.0 mg/kg/injection, schedule: Q07DX002 (ip), vehicle: suspension in saline.

Where “and” joins values, the source holds several entries; their conditions need not be identical. Equal entries are not always repeated. Inconclusive results are not listed.

On to `CCN(CC)CC[n+]1ccc2c(C)c3[nH]c4ccc(O)cc4c3c(C)c2c1`, for which the T/C is, setting by setting: (dose: 3.12 mg/kg/injection, schedule: Q07DX002 (ip), vehicle: saline) 38 % of control; (dose: 3.12 mg/kg/injection, schedule: Q07DX002 (ip), vehicle: suspension in saline) 82 % of control; (dose: 6.25 mg/kg/injection, schedule: Q07DX002 (ip), vehicle: suspension in saline) 103 % of control; (dose: 12.5 mg/kg/injection, schedule: Q07DX002 (ip), vehicle: suspension in saline) 98 % of control; under setting [1], 15 % of control and 29 % of control; under setting [2], 57 % of control. Also, the T/C is 5 % of control under setting [3] and 22 % of control under setting [4].

Take `COc1cc2c(cc1O)C1C(O)C(O)C=C3CCN(C2)C31` (centres undefined): the T/C runs as follows: (dose: 4.0 mg/kg/injection, schedule: Q07DX002 (ip), vehicle: saline + alcohol) 105 % of control; (dose: 8.0 mg/kg/injection, schedule: Q07DX002 (ip), vehicle: saline + alcohol) 79 % of control; (dose: 16.0 mg/kg/injection, schedule: Q07DX002 (ip), vehicle: saline + alcohol) 105 % of control; (dose: 32.0 mg/kg/injection, schedule: Q07DX002 (ip), vehicle: saline + alcohol) 73 % of control.

Turning to `O=C1C2CC=CCC2C(=O)N1SC(Cl)(Cl)Cl` (centres undefined), the T/C is, setting by setting: (dose: 3.12 mg/kg/injection, schedule: Q07DX002 (ip), vehicle: saline with Tween-80) 107 % of control; (dose: 6.25 mg/kg/injection, schedule: Q07DX002 (ip), vehicle: saline with Tween-80) 110 % of control; (dose: 12.5 mg/kg/injection, schedule: Q07DX002 (ip), vehicle: saline with Tween-80) 99 % of control; under setting [5], 84 % of control.

For the molecule `Cc1cc(Nc2ccc3c(c2)OCO3)c2cc3c(cc2n1)OCO3`, the T/C (dose: 50.0 mg/kg/injection, schedule: Q07DX002 (ip), vehicle: Klucel (hydroxypropylcellulose) (HPC)) is 86 % of control; the T/C (dose: 100.0 mg/kg/injection, schedule: Q07DX002 (ip), vehicle: Klucel (hydroxypropylcellulose) (HPC)) is 85 % of control; the T/C (dose: 200.0 mg/kg/injection, schedule: Q07DX002 (ip), vehicle: Klucel (hydroxypropylcellulose) (HPC)) was 36 % of control.

On to `O=[N+]([O-])O.[Ga]`, for which the T/C runs as follows: (dose: 12.5 mg/kg/injection, schedule: Q07DX003 (ip), vehicle: saline) 122 % of control; under setting [1], 159 % of control; (dose: 25.0 mg/kg/injection, schedule: Q07DX003 (ip), vehicle: saline) 121 % of control; under setting [3], 78 % of control; under setting [6], 81 % of control; under setting [7], 44 % of control.

Regarding `O=c1[nH]c(=O)n(C2CC(O)C(CO)O2)cc1I` (centres undefined), the T/C is 79 % of control under setting [8]; 44 % of control under setting [3]; 69 % of control (dose: 100.0 mg/kg/injection, schedule: Q07DX002 (ip), vehicle: saline with Tween-80); 50 % of control under setting [6]; 102 % of control under setting [9]; 44 % of control under setting [10]. Also, the T/C runs as follows: (dose: 200.0 mg/kg/injection, schedule: Q07DX002 (ip), vehicle: suspension in saline) 57 % of control; under setting [11], 105 % of control; under setting [12], 44 % of control; under setting [13], 102 % of control; under setting [14], 75 % of control; under setting [15], 18 % of control. Moreover, the T/C under setting [16] was 59 % of control; the T/C (dose: 1600.0 mg/kg/injection, schedule: Q07DX002 (ip), vehicle: saline with Tween-80) was 48 % of control; the T/C (dose: 1600.0 mg/kg/injection, schedule: Q07DX002 (ip), vehicle: saline) was 1 % of control.

For `COC1CC(C)C(OC)C2=CC(=O)C=C(NC(=O)/C(C)=C/C=C\C(C)C(OC(N)=O)/C(C)=C\C(C)C1OC)C2=O` (centres undefined), the T/C was 111 % of control (dose: 3.13 mg/kg/injection, schedule: Q07DX002 (ip), vehicle: saline + alcohol); 110 % of control (dose: 6.25 mg/kg/injection, schedule: Q07DX002 (ip), vehicle: saline + alcohol); 105 % of control (dose: 12.5 mg/kg/injection, schedule: Q07DX002 (ip), vehicle: saline + alcohol); 110 % of control (dose: 25.0 mg/kg/injection, schedule: Q07DX002 (ip), vehicle: saline + alcohol); 102 % of control (dose: 50.0 mg/kg/injection, schedule: Q07DX002 (ip), vehicle: saline + alcohol).

For the molecule `CCC(C)C(=O)O[C@H]1C(=O)O[C@@H]2C[C@H]3C(C)=CC(=O)[C@@H](O)[C@]3(C)[C@H]3[C@@H](O)[C@H](O)[C@@]4(C)OC[C@]32[C@@H]14` (some centres undefined), the T/C (dose: 1.25 mg/kg/injection, schedule: Q07DX002 (ip), vehicle: saline + alcohol) was 45 % of control; the T/C (dose: 5.0 mg/kg/injection, schedule: Q07DX002 (ip), vehicle: saline + alcohol) is 27 % of control and 50 % of control.

Take `O=[N+]([O-])O.O=[N+]([O-])O.[NH-]C1CCCCC1[NH-].[Pt+2]` (centres undefined): the T/C by setting is: (dose: 0.5 mg/kg/injection, schedule: Q07DX002 (ip), vehicle: dextrose) 101 % of control; (dose: 2.0 mg/kg/injection, schedule: Q07DX002 (ip), vehicle: dextrose) 62 % of control and 81 % of control; (dose: 4.0 mg/kg/injection, schedule: Q07DX002 (ip), vehicle: dextrose) 62 % of control and 81 % of control; (dose: 8.0 mg/kg/injection, schedule: Q07DX002 (ip), vehicle: dextrose) 27 % of control and 33 % of control.

Regarding `NC(=O)NO`, the T/C was 99 % of control under setting [1]; 69 % of control under setting [3]; 99 % of control under setting [6]; 152 % of control under setting [7]; 78 % of control under setting [10]; 43 % of control and 60 % of control (dose: 200.0 mg/kg/injection, schedule: Q07DX003 (ip), vehicle: saline). For the same molecule, the T/C runs as follows: under setting [12], 88 % of control; (dose: 800.0 mg/kg/injection, schedule: Q07DX003 (ip), vehicle: saline) 39 % of control.

With `CCCCn1cnc2c(=S)nc[nH]c21`, the T/C runs as follows: under setting [8], 87 % of control and 96 % of control; under setting [11], 17 % of control and 21 % of control.

As for `NC(=S)N/N=C/c1ccc(O)cn1`, the T/C by setting is: under setting [1], 123 % of control; under setting [2], 83 % of control; under setting [3], 67 % of control; under setting [4], 72 % of control; under setting [6], 67 % of control; (dose: 100.0 mg/kg/injection, schedule: Q07DX002 (ip), vehicle: suspension in saline) 108 % of control. Also, the T/C under setting [10] was 72 % of control; the T/C under setting [12] is 71 % of control; the T/C under setting [13] is 105 % of control; the T/C under setting [15] was 67 % of control; the T/C under setting [16] was 110 % of control.

Consider `C/C=C/C=C1/OC(C)=C(C(C)=O)C1=O`, for which the T/C is 59 % of control and 84 % of control under setting [5]; 54 % of control and 57 % of control and 69 % of control under setting [9]; 37 % of control and 62 % of control under setting [11]; 100 % of control under setting [14].

As to `C=C1CCOC2(C(O)C(C)(O)CO)NC(=O)C1(O)NC2=O` (centres undefined), the T/C is 104 % of control (dose: 225.0 mg/kg/injection, schedule: Q07DX002 (ip), vehicle: saline); 74 % of control (dose: 450.0 mg/kg/injection, schedule: Q07DX002 (ip), vehicle: saline); 81 % of control (dose: 900.0 mg/kg/injection, schedule: Q07DX002 (ip), vehicle: saline); 46 % of control (dose: 1800.0 mg/kg/injection, schedule: Q07DX002 (ip), vehicle: saline).

As for `Cc1cc2c(=O)c3ccccc3oc2c(C(=O)O)c1C`, the T/C is, setting by setting: (dose: 50.0 mg/kg/injection, schedule: Q07DX002 (ip), vehicle: sodium bicarbonate) 69 % of control; (dose: 100.0 mg/kg/injection, schedule: Q07DX002 (ip), vehicle: sodium bicarbonate) 42 % of control; (dose: 200.0 mg/kg/injection, schedule: Q07DX002 (ip), vehicle: sodium bicarbonate) 37 % of control; (dose: 400.0 mg/kg/injection, schedule: Q07DX002 (ip), vehicle: sodium bicarbonate) 44 % of control.
